Experimental data published in ChEMBL document CHEMBL1201862, “PubChem BioAssay data set” (2004).
Activity calls are given as the source filed them.

Legend:
[1] = biological target: Intestinal-type alkaline phosphatase (Mus musculus, UniProt P24822); test: PubChem AID 488785; assay type: functional
[2] = biological target: T1, Histone-lysine N-methyltransferase NSD2 (Homo sapiens, UniProt O96028); assay type: biochemical
T1 sequence (O96028 whole entry): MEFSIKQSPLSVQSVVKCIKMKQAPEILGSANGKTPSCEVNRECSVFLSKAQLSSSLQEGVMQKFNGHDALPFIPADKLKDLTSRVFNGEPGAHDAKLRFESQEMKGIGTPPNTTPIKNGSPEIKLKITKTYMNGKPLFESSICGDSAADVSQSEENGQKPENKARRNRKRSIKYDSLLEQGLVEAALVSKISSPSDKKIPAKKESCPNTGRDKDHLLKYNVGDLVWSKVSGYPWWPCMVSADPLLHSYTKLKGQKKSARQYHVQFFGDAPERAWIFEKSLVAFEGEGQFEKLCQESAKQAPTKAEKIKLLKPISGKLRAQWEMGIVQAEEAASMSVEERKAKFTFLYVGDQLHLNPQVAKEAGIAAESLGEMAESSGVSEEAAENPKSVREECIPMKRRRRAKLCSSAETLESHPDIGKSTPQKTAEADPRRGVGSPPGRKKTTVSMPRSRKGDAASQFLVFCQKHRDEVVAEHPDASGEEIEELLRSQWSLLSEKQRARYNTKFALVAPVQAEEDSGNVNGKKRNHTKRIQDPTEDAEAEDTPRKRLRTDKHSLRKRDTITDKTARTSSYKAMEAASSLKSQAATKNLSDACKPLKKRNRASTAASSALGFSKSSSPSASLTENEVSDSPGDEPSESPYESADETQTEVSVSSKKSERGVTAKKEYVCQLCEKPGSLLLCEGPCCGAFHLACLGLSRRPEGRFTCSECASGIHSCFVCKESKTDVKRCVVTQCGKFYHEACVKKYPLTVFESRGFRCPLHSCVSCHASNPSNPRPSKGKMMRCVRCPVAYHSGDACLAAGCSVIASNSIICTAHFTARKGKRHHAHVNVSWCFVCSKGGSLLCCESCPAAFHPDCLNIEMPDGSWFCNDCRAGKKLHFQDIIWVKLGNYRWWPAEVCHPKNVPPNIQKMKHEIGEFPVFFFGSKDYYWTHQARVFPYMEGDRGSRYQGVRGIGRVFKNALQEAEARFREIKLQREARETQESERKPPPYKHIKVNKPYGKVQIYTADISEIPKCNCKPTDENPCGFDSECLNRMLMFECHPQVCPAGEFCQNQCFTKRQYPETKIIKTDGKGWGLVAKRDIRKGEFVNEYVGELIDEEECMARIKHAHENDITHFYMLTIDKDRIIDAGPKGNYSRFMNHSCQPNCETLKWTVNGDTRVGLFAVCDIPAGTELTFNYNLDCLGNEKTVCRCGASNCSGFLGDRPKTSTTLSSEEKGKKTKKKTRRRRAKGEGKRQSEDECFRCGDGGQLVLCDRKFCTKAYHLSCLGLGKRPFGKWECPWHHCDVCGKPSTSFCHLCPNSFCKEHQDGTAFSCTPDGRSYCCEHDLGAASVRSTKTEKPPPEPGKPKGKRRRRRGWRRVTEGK

[3] = biological target: T2, Intestinal-type alkaline phosphatase (Homo sapiens, UniProt P09923); test: inhibition of human intestinal alkaline phosphatase – biochemical, dose response (AID 488876); assay type: functional
T2 sequence (P09923 whole entry): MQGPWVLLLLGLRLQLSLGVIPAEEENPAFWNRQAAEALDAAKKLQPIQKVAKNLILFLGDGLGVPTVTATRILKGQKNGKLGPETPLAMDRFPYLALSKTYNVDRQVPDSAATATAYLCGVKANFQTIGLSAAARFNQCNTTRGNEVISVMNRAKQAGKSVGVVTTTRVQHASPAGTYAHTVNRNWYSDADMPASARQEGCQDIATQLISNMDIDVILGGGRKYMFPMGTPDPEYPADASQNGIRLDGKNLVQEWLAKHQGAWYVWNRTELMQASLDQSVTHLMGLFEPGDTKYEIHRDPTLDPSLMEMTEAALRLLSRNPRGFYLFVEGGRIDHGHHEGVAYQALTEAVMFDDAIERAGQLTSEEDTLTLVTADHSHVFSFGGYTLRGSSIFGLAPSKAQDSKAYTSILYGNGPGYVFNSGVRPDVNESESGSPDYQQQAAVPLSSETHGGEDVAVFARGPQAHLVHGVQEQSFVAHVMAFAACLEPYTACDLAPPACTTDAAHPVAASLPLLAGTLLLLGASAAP

[4] = biological target: T3, Alkaline phosphatase, tissue-nonspecific isozyme (Homo sapiens, UniProt P05186); test: TNAP enzyme inhibition by screening hits, dose response, selectivity assay for mouse IAP inhibitor project, biochemical, human TNAP, uHTS hits (AID 488906); assay type: functional
T3 sequence (P05186 whole entry): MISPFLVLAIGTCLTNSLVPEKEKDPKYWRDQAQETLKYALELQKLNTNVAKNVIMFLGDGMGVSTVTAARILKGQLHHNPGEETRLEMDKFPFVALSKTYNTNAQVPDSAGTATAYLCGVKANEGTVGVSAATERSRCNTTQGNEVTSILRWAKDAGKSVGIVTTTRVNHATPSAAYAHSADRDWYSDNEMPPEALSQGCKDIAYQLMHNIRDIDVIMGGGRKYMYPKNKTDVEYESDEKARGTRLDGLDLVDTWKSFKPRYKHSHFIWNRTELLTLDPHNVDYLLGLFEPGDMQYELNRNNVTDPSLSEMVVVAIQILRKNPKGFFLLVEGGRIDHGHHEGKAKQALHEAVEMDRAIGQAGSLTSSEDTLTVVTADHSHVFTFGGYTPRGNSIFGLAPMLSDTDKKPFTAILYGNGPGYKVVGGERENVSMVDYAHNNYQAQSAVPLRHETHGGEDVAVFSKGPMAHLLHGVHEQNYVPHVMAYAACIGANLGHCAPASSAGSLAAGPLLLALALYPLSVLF

[5] = Counterscreen for AddAB inhibitors: absorbance-based bacterial cell-based high throughput dose response assay for inhibitors of bacterial viability. [Related pubchem assays (depositor defined):AID435030, AID449728, AID449731, AID488942, AID488955, AID488956]; assay type: functional
Exodeoxyribonuclease V = Exodeoxyribonuclease V (Escherichia coli (strain K12), UniProt P04993+P07648+P08394); test: E. coli RecBCD inhibitors, dose response, counter-screen for AddAB inhibitor project, absorbance, V66 E. coli, mutant T4 phage (AID 492957); assay type: functional, cell-based, Escherichia coli str. K-12 substr. MG1655
Exodeoxyribonuclease V, sequence (P04993 whole entry): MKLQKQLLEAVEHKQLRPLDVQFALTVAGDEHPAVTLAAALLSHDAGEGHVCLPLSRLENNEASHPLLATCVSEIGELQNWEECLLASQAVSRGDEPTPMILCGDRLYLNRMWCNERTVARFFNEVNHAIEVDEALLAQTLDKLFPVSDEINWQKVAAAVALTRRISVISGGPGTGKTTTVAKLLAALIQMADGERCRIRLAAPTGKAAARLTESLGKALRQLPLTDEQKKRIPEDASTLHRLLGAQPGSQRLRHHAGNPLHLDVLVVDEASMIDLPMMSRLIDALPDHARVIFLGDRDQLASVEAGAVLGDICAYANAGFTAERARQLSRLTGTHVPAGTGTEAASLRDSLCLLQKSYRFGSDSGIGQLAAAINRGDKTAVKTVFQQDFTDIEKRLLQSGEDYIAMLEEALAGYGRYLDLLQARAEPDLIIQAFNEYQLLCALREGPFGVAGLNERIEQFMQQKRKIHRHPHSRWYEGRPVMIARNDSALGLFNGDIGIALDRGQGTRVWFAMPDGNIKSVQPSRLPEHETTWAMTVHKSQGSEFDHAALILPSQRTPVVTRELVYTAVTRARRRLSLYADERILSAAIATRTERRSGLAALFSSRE
Exodeoxyribonuclease V, sequence (P07648 whole entry): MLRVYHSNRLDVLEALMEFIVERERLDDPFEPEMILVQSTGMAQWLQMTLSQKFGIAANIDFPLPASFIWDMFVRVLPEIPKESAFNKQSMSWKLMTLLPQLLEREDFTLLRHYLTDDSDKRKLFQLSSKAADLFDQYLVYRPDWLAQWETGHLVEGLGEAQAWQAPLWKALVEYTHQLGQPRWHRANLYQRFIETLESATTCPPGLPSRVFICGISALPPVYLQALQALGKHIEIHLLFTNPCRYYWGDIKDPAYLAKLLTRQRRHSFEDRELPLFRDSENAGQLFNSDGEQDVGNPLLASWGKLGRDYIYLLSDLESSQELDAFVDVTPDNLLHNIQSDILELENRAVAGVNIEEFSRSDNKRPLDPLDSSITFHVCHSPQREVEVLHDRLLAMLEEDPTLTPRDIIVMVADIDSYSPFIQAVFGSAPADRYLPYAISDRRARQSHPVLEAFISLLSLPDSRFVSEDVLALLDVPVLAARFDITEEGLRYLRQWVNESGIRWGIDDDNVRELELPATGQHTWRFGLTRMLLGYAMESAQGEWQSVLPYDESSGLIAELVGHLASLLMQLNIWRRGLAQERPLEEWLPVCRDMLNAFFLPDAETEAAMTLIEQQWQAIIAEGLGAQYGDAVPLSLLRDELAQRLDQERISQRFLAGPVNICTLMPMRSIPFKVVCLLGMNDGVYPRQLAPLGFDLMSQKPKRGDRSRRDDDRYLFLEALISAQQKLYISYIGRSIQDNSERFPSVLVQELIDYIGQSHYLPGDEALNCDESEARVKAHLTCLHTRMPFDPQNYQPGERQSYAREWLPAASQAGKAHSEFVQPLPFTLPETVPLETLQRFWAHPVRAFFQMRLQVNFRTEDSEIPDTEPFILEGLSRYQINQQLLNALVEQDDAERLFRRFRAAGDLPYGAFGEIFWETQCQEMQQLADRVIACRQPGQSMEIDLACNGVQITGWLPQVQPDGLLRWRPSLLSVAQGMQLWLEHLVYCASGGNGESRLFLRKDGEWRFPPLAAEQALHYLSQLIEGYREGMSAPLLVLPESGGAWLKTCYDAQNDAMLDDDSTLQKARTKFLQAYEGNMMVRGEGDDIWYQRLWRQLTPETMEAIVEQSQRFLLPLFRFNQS
Exodeoxyribonuclease V, sequence (P08394 whole entry): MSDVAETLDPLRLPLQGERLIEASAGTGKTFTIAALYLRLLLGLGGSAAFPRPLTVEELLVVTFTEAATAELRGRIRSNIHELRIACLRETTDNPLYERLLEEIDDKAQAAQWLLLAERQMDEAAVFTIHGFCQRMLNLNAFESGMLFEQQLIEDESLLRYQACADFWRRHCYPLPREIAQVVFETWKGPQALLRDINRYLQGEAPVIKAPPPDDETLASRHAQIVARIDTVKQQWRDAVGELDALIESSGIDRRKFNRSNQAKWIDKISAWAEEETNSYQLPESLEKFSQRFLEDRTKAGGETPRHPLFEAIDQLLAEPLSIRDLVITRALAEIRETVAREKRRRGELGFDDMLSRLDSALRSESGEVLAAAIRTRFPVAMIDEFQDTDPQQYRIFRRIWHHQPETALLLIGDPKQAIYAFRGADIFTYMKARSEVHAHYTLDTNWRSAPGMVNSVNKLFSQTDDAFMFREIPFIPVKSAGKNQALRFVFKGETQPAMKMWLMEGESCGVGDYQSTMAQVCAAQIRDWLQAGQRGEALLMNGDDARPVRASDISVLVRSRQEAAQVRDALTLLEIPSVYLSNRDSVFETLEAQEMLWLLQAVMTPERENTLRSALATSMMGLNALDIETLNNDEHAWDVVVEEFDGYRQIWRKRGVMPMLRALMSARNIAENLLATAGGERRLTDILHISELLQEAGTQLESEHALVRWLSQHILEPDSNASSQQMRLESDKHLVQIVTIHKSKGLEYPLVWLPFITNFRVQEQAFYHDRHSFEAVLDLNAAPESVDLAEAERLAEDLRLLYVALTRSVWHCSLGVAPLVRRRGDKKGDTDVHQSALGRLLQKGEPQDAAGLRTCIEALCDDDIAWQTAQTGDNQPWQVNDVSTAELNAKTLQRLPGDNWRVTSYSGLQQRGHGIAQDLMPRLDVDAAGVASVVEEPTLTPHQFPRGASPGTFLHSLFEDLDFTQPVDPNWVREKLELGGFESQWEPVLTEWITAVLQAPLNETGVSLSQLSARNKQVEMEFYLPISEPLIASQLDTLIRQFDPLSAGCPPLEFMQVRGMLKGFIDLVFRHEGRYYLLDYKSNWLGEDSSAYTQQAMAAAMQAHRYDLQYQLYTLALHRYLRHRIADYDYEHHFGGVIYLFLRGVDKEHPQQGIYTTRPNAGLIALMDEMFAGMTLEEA

Tumor necrosis factor = Tumor necrosis factor (Homo sapiens, UniProt P01375); test: TNFa-triggered NF-kB activation inhibitors, SAR follow-up, cell-based, revised (AID 2337); assay type: functional
Tumor necrosis factor, sequence (P01375 whole entry, the tested form may be a part): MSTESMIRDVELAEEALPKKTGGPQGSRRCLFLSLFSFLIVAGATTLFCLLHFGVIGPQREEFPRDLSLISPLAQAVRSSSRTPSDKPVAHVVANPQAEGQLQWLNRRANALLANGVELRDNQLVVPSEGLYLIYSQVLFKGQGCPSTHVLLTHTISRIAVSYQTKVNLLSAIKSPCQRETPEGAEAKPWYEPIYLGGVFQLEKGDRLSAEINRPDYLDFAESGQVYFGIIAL

[6] = biological target: Nucleotide-binding oligomerization domain-containing protein 1 (Homo sapiens, UniProt Q9Y239); test: NOD1 signaling inhibitors, SAR follow-up, revised (AID 2333); assay type: functional
HEK293 [7] = test: cells; conditions: Homo sapiens
BJ [8] = test: cells; assay type: functional, cell-based; conditions: Homo sapiens
[9] = biological target: T4, Heat shock factor protein 1 (Mus musculus, UniProt P38532); test: inhibition of MG132-induced HSE-luciferase signal, confirmation, cell-based, NIH3T3, luminescence, dose retest (AID 2382); assay type: functional;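 further: NIH3T3 fibroblasts with HSF1-driven luciferase reporter stressed by proteasome inhibitor MG132; luminescence from HSF1-driven luciferase expression after 8 hours of MG132 stress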
T4 sequence (P38532 whole entry): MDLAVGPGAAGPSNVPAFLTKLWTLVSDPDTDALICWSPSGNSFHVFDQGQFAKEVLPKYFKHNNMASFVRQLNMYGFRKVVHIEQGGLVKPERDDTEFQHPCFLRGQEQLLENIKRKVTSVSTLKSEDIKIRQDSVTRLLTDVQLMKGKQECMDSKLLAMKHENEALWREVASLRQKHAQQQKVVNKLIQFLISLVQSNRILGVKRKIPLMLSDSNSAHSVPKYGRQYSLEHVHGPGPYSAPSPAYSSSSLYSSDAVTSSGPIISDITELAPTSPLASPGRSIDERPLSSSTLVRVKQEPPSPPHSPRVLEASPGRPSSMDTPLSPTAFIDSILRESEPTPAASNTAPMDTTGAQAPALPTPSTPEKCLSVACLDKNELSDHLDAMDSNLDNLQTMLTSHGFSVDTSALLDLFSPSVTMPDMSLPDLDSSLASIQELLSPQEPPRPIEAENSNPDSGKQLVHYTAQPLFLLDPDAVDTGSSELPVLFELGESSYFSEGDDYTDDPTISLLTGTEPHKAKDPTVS

cells [10] = assay type: functional, cell-based
BJ [11] = test: cytotoxicity toward BJ-TERT fibroblasts, dose response, cell-based, RAS-independent, luminescence (AID 1933); assay type: functional; conditions: Homo sapiens
INS1 = test: beta cell apoptosis inhibitors, cytokine rescue, dose response, luminescence, retest (AID 449756); assay type: functional, cell-based; conditions: Rattus norvegicus;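 further: cell death triggered by IL-1 beta plus TNF-alpha plus IFN-gamma mixture; protective hits raise ATP signal compared with cytokine alone wells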
[12] = tested on: Streptococcus sp. 'group A'; test: growth inhibition of control SK(-) GAS strain, dose response, counter-screen for streptokinase expression inhibitor project, luminescence, kanamycin, BacTiterGlo, confirmation (AID 1900); assay type: functional, organism-based
[13] = Luminescence Cell-Based Dose Response HTS to Identify Inhibitors of 5'UTR Stem-Loop Driven Prion Protein mRNA Translation in H4 Neuroglioblastoma Cells. [Related pubchem assays: 1827 (Project Summary), 1813 (Primary HTS)]; assay type: functional
[14] = C. albicans growth with fluconazole, confirmation, fluorescence, retest (AID 2467); assay type: functional, cell-based
[15] = biological target: Heat shock protein HSP 90-alpha (Homo sapiens, UniProt P07900); assay type: functional, organism-based
[16] = Luminescence-based dose response cell-based high throughput screening assay for cytotoxic compounds using the IEC-6 intestinal epithelial cell line. [Related pubchem assays: 1858 (Summary AID.), 1825 (Counterscreen.), 1907 (Confirmation screen.)]; assay type: functional
HEK293 [17] = test: cells; assay type: functional, cell-based; conditions: Homo sapiens
HEK293 [18] = test: NOD1 signaling inhibitors, primary screen, cell-based, luminescence, uHTS (AID 1578); assay type: functional; conditions: Homo sapiens
BJ [19] = test: cytotoxicity toward BJ-TERT-LT-ST fibroblasts, dose response, cell-based, RAS-independent, luminescence (AID 1935); assay type: functional; conditions: Homo sapiens;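 further: BJ fibroblasts immortalized with TERT plus LT and ST oncogenes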
cells [20] = assay type: functional, cell-based; remark: listed apart in the source
[21] = inhibitors of SNCA 5'UTR-driven reporter translation, confirmation, H4 neuroglioma cells, luminescence (AID 1988); assay type: functional, cell-based
Streptokinase A = biological target: T5, Streptokinase A (Streptococcus pyogenes serotype M1, UniProt P10520); test: S. pyogenes streptokinase expression inhibitors, potency, dose response, plasminogen activation absorbance, OD405 (AID 1914); assay type: functional, Streptococcus pyogenes M1 GAS;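 further: secreted streptokinase activity via plasminogen activation per viability signal from cell pellet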
T5 sequence (P10520 whole entry): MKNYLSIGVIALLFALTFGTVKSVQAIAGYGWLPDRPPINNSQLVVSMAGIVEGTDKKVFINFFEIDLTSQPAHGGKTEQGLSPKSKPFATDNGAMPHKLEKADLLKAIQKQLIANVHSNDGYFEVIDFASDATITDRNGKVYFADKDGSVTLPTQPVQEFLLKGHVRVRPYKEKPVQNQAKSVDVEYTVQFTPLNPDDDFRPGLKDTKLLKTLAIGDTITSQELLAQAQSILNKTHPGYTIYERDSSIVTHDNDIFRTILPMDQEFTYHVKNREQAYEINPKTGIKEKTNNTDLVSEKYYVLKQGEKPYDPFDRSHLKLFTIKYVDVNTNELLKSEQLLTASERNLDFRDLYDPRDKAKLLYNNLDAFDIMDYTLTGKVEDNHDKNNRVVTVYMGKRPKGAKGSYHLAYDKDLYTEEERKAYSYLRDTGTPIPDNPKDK

BJ [22] = test: cytotoxicity toward Ras-transformed BJeLR fibroblasts, dose response, cell-based, alamar blue fluorescence, cherrypicked samples (AID 2631); assay type: functional; conditions: Homo sapiens;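 further: confirmatory dose-response assay in RAS-dependent BJ fibroblasts engineered with TERT, LT and ST, with cytotoxicity read by fluorescence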
[23] = cytotoxicity toward DRD oncogenic fibroblasts, dose response, cell-based, non-viral oncogenic, luminescence (AID 1934); assay type: functional; conditions: Homo sapiens
HEK293 [24] = test: cells; assay type: functional, cell-based; conditions: Homo sapiens; remark: listed apart in the source
[25] = inhibitors of firefly luciferase expression or activity, dose response, H4 neuroglioma cells, luminescence (AID 1990); assay type: functional, cell-based
Streptococcus = test: Group A Streptococcus viability loss, dose response, counter-screen for streptokinase expression inhibitor project, luminescence, BacTiterGlo (AID 1915); assay type: functional, organism-based;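 further: potency for reduction of bacterial viability or growth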
[26] = NIH-3T3 fibroblast cytotoxicity, dose response, cytotoxicity control, cell-based, fluorescence, Alamar Blue, secondary assay (AID 2327); assay type: functional;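 further: NIH-3T3 mouse fibroblasts cultured with fluconazole at 8 µg/mL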
HEK293 [27] = test: NOD2 signaling inhibitors in MDP-stimulated cells, cell-based, uHTS, luminescence (AID 2001); assay type: functional; conditions: Homo sapiens
[28] = biological target: Nucleotide-binding oligomerization domain-containing protein 2 (Homo sapiens, UniProt Q9HC29); test: NOD2 signaling inhibitors, cell-based, luminescence, uHTS, HEK293 (AID 1566); assay type: functional
[29] = biological target: T2, Intestinal-type alkaline phosphatase; test: Dose Response confirmation of uHTS hits from a small molecule inhibitors of human intestinal alkaline phosphatase via a luminescent assay. [Related pubchem assays (depositor defined):AID2544, AID2574]; assay type: functional

Intestinal-type alkaline phosphatase (Mus musculus, UniProt P24822), sequence (P24822 whole entry): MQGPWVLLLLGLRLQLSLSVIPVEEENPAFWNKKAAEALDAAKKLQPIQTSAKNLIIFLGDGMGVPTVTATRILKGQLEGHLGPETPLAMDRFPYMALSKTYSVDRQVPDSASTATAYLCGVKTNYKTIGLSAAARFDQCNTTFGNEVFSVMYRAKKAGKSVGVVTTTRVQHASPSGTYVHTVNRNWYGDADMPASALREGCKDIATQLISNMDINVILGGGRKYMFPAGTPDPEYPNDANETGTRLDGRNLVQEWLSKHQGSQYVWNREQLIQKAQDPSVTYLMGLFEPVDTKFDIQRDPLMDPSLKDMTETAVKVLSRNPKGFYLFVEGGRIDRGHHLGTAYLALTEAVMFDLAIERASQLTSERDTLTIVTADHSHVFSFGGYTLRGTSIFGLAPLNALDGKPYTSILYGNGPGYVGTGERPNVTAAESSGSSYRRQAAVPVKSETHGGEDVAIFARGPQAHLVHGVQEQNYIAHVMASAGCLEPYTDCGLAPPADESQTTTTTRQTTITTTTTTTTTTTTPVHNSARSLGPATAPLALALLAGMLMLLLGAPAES

With `CN1C(=O)NC(=O)/C(=C/c2ccc([N+](=O)[O-])o2)C1=O` the IC50 [1] was 43.8 µM (active), the AC50 [2] was 15.4 µM (active) and the IC50 [3] was > 100 µM (inactive). The IC50 [4] was > 100 µM (inactive).

In the case of `Cc1ccc(NC(=O)Cn2cnc3ccccc32)cc1C`, the IC50 [5] is reported as > 119 µM (inactive) and the IC50 (Exodeoxyribonuclease V) is reported as > 119 µM (inactive).

With `O=C(CSc1nc(O)c2c(-c3ccccc3)csc2n1)NC1CCCCC1` the IC50 (Tumor necrosis factor) was > 20 µM (inactive), the IC50 [6] was > 20 µM (inactive) and the IC50 (HEK293 [7]) was > 20 µM (inactive).

For `Cc1ccc(C(C)C)c(OCc2ccc(C(=O)N/N=C/c3cccc(O)c3O)cc2)c1`, the EC50 (BJ [8]) was 2.58 µM (active), the EC50 [9] was 1.24 µM (active) and the EC50 (cells [10]) was 6.18 µM (active). For the same compound, the EC50 (BJ [11]) was 9.95 µM (active), the AC50 (INS1) was 0.832 µM (active) and the EC50 [12] was 1.87 µM (active). For the same compound, the EC50 [13] was 0.979 µM (active), the EC50 [14] was 0.928 µM (active) and the AC50 [15] was 4.01 µM (active). The IC50 [16] was 1.67 µM (active), the IC50 (HEK293 [17]) was 1.16 µM (active) and the EC50 (HEK293 [18]) was > 20 µM (inactive). The EC50 (BJ [19]) was 7.23 µM (active), the IC50 [5] was > 119 µM (inactive) and the EC50 (cells [20]) was > 350 µM (not active). The EC50 [21] was 0.976 µM (active), the EC50 (Streptokinase A) was > 150 µM (not active) and the EC50 (BJ [22]) was 0.533 µM (active). For the same compound, the IC50 (Exodeoxyribonuclease V) was > 119 µM (inactive), the EC50 [23] was 4.88 µM (active) and the IC50 (HEK293 [24]) was > 20 µM (inactive). For the same compound, the EC50 [25] was 0.54 µM (active), the EC50 (Streptococcus) was 5.32 µM (active) and the EC50 [26] was 3.17 µM (active). For the same compound, the IC50 (HEK293 [27]) was > 20 µM (inactive) and the EC50 [28] was > 20 µM (inactive).

For `O=c1c(O[C@@H]2O[C@H](CO)[C@@H](O)[C@H](O)[C@H]2O)c(-c2ccc(O)c(O)c2)oc2cc(O)cc(O)c12` [ISOQUERCETIN], the IC50 [1] was 1.66 µM (active), the IC50 [29] was 5.25 µM (active) and the IC50 [3] was 8.96 µM (active). For the same compound, the IC50 [4] was 14 µM (active).
